Data set [1] relates to human EPAS1 (Hif2α) cDNA in psiCHECK2 (Renilla luciferase/EPAS1 fusion mRNA) in Hep3B cells. As to the kind of experiment: Hif2α RNAi trigger EC50 determination, dual-luciferase reporter assay. The format is cell-based. As to conditions: UNA modified at site 6 or 7, EPAS1-psiCHECK2, same conditions, read-out: EC50 UNAs EC50. The text has this:
Candidate sequences were identified by in silico analysis and screened as chemically modified canonical siRNAs in vitro. For screening purposes, the human EPAS1 (Hif2α) cDNA sequence (accession #NM 001430) was synthesized and cloned (DNA 2.0, Menlo Park, Calif.) into a commercially-available reporter-based screening plasmid, psiCHECK2 (Promega, Madison, Wis.) which generated a Renilla luciferase/EPAS1 fusion mRNA. For RNAi trigger efficacy evaluation, Hep3B cells, a human hepatocellular carcinoma line, were plated at 10,000 cells per well in 96-well format. Each of the 187 EPAS1 RNAi triggers, in two subsets, was co-transfected at two concentrations, 1 nM and 0.1 nM, with 25 ng EPAS1-psiCHECK2 plasmid DNA per well and 0.2 μL LipoFectamine 2000 (Life Technologies) per well. Gene knockdown was determined by measuring Renilla luciferase levels normalized to the levels of constitutively-expressed firefly luciferase, also present on the psiCHECK-2 plasmid, using the Dual Luciferase Reporter Assay (Promega, Madison, Wis.) Table 5.
The eight best canonical sequences were further evaluated by determining the EC50 concentration. Each trigger was assessed for knockdown under the same conditions and assays as above, but at 10 different concentrations ranging from 0.00051 nM to 10 nM. EC50 were determined using GraphPad Prism software. Each of the top five canonical sequences were modified to contain UNA at sites 6 and 7. These triggers, along with their parent canonical sequences, were evaluated side-by-side for EC50 concentration determination using the same conditions and assays as above, Table 6.
For orientation: In a reporter assay the amount or activity of a reporter protein is the signal.

The subject of data set [2] is human (tumor) Hif2α (EPAS1) mRNA. As to the kind of experiment: Hif2α knockdown in orthotopic RCC tumor bearing mice, single injection of RNAi trigger-delivery polymer conjugate, RT-qPCR (Table 7). As to conditions: single tail vein injection, relative to isotonic glucose. The data set is classed as in vivo. The method, boiled down:
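Female athymic nude mice carried orthotopic A498-SEAP ccRCC kidney tumours, used 5–6 weeks after implantation. They received one tail-vein injection of RGD-targeted Hif2α RNAi trigger–polymer conjugate or isotonic glucose. Tumour Hif2α mRNA was measured by TaqMan RT-qPCR normalised to CycA (ΔΔCT) and expressed relative to glucose-treated mice.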
(In general: Real-time PCR tracks product formation cycle by cycle.)

The test system is the same in data set [3]. As to the kind of experiment: Hif2α expression in RCC tumor bearing mice after single injection of RGD targeted conjugates, 72 h, RT-qPCR (Table 11). The data set is classed as in vivo. As to conditions: trigger 80 μg, polymer 126 280 μg. As for the experimental part: Female athymic nude mice were anesthetized with ˜3% isoflourane and placed in the right lateral decubitus position. A small, 0.5-1 cm, longitudinally abdominal incision in the left flank was made. Using a moist cotton swab, the left kidney was lifted out of the peritoneum and gently stabilized. Just before injection, a 1.0 ml syringe was filled with the cell/Matrigel mixture and a 27 gauge needle catheter was attached to the syringe tip. The filled syringe was then attached to a syringe pump (Harvard Apparatus, model PHD2000) and primed to remove air. The tip of a 27-gauge needle catheter attached to a syringe was inserted just below the renal capsule near the caudal pole and the tip of the needle was then carefully advanced cranially along the capsule 3-4 mm. A 10 μl aliquot of 2:1 (vol:vol) cell/matrigel mixture containing about 300,000 cells was slowly injected into the kidney parenchyma using a syringe pump. The needle was left in the kidney for 15-20 seconds to ensure the injection was complete. The needle was then removed from the kidney and a cotton swab was placed over the injection site for 30 seconds to prevent leakage of the cells or bleeding. The kidney was then gently placed back into the abdomen and the abdominal wall was closed. Serum was collected every 7-14 days after implantation to monitor tumor growth using a commercial SEAP assay kit. For most studies, tumor mice were used 5-6 weeks after implantation, when tumor measurements were typically around 4-8 mm.
In preparation for quantitative PCR, total RNA was isolated from tissue samples homogenized in TriReagent (Molecular Research Center, Cincinnati, Ohio) following the manufacturer's protocol. Approximately 500 ng RNA was reverse-transcribed using the High Capacity cDNA Reverse Transcription Kit (Life Technologies). For human (tumor) Hif2α (EPAS1) expression, pre-manufactured TaqMan gene expression assays for human Hif2α (Catalog #4331182) and CycA (PPIA) Catalog #: 4326316E) were used in biplex reactions in triplicate using TaqMan Gene Expression Master Mix (Life Technologies) or VeriQuest Probe Master Mix (Affymetrix). For human (tumor) VegFa (VEGFA) expression, pre-manufactured TaqMan gene expression assays for human VegFa (Catalog #4331182, Assay ID: Hs00900055) and CycA (Part#: 4326316E) were used in biplex reactions in triplicate using TaqMan Gene Expression Master Mix (Life Technologies) or VeriQuest Probe Master Mix (Affymetrix). Quantitative PCR was performed by using a 7500 Fast or StepOnePlus Real-Time PCR system (Life Technologies). The ΔΔCT method was used to calculate relative gene expression.
RGD targeted HiF2α-RNAi trigger delivery polymer conjugates were formed using polymer 126, 100A, or 006. The RNAi trigger, μg indicates the quantity of trigger reacted with polymer. The polymer was modified with the indicated RGD mimic and PEG modifying agents as described above. Kidney RCC tumor-bearing mice were generated as described and treated with a single tail vein injection of isotonic glucose (G1) or the indicated Hif2α RNAi trigger-delivery polymer conjugate. Mice were euthanized 72 h (day 4) after injection and total RNA was prepared from kidney tumor using Trizol reagent following manufacturer's recommendation. Relative HiF2α mRNA levels were determined by RT-qPCR as described and compared to mice treated with delivery buffer (isotonic glucose) only (Table 11).

Where [4] appears, read: RNAi trigger 80 μg, polymer 126 400 μg.

This note sets out measurements from patent publication US9976141B2, “Compositions and methods for inhibiting gene expression of Hif2alpha” (Arrowhead Madison Inc., priority 2015, dated 2018).

Strand notation (5' to 3'): a small letter for the sugar, then the base; units joined by * are phosphorothioate-linked, units joined directly phosphodiester-linked; [ ] holds rarer units or linkages, { } end groups; capitals alone tell only the bases. [UNA-N] = unlocked nucleic acid (N: the base); [invdT] = inverted (3'-3') thymidine; d = 2'-deoxy (DNA); m = 2'-O-methyl; f = 2'-fluoro

A word on the EC50: it is the concentration giving half of the maximal effect. Turning to “AD00989: Hif2α RNAi trigger, XD-02371 sequence modified to contain UNA at site 6 (antisense dTfCmUfAmG[UNA-C]mAfAmCfAmAfAmAfCmCfUmUfAmAdT*dT; sense fUmUfAmAfGmGfUmUfUmUfGmUfUmGfCmUfAmGfA[invdT])”, the EC50 in data set [1] stood at 0.375 nM.
Consider “AD01031: Hif2α RNAi trigger duplex used in the multi-dose conjugate of Example 15 (antisense TUUCAUGAAAUCGUUACGUTT; sense ACGUAACGAUUUCAUGAAAT; Hif2alpha RNAi agent antisense strand; modified_base 2,4,6,8,10,12,14,16,18 /mod_base = “2′-deoxy-2′-fluoro corresponding nucleoside”; modified_base 3,5,7,9,11,13,15,17,19 /mod_base = “2′-O-methyl corresponding nucleoside”; modified_base 21 /mod_base = “5′-phosphorothioate corresponding nucleotide”; Hif2alpha RNAi agent sense strand; modified_base 1,3,5,7,9,11,13,15,17,19 /mod_base = “2′-deoxy-2′-fluoro corresponding nucleoside”; modified_base 2,4,6,8,10,12,14,16,18 /mod_base = “2′-O-methyl corresponding nucleoside”; modified_base 20 /mod_base = “3′-3′-linked nucleotide”; modified_base 1 /mo)”, for which the “Relative Expression day 4 (Hif2α mRNA in kidney tumor)” value in data set [2] (setting [4]) is listed as 0.20. The “Relative Expression day 4 (Hif2α)” value in data set [3] (RGD-PEG8-ACit-PABC-PNP 0.4×, PEG6-ACit-PABC-PNP) came out at 0.311; in data set [3] (RGD-PEG8-HyNic 0.5×, PEG12-ACit-PABC-PNP), 0.300.
With “AD00995: Hif2α RNAi trigger, XD-02404 sequence modified to contain UNA at site 7 (antisense dTfAmAfAmUfC[UNA-G]fUmUfAmCfGmUfUmGfAmCfAmGdT*dT; sense dTfGmAfGmGfAmGfCmUfUmGfUmGfUmGfUmUfCmGdT*dT)”, in data set [1], the EC50 was determined as 0.169 nM.
Regarding “AD00994: Hif2α RNAi trigger, XD-02371 sequence modified to contain UNA at site 7 (antisense dTfCmUfAmGfC[UNA-A]fAmCfAmAfAmAfCmCfUmUfAmAdT*dT; sense fUmUfAmAfGmGfUmUfUmUfGmUfUmGfCmUfAmGfA[invdT])”, the EC50 in data set [1] was 0.0807 nM.
Consider “AD00992: Hif2α RNAi trigger, XD-02415 sequence modified to contain UNA at site 6 (antisense dTfAmAfGmU[UNA-U]mAfAmGfCmUfCmCfCmAfUmAfCmAdT*dT; sense fUmGfUmAfUmGfGmGfAmGfCmUfUmAfAmCfUmUfA[invdT])”, for which the concentration giving a half-maximal response (EC50) in data set [1] turned out to be 0.142 nM.
For the substance “AD00996: Hif2α RNAi trigger, XD-02407 sequence modified to contain UNA at site 7 (antisense dTfUmUfCmAfU[UNA-G]fAmAfAmUfCmGfUmUfAmCfGmUdT*dT; sense fAmCfGmUfAmAfCmGfAmUfUmUfCmAfUmGfAmAfA[invdT])”, the EC50 in data set [1] was 0.118 nM.
As to “AD00993: Hif2α RNAi trigger, XD-02335 sequence modified to contain UNA at site 7 (antisense dTfGmUfAmAfA[UNA-A]fCmAfAmUfUmGfUmGfUmAfCmUdT*dT; sense fAmGfUmAfCmAfCmAfAmUfUmGfUmUfUmUfAmCfA[invdT])”, the EC50 in data set [1] stood at 0.55 nM.
Turning to “AD00990: Hif2α RNAi trigger, XD-02404 sequence modified to contain UNA at site 6 (antisense dTfAmAfAmU[UNA-C]mGfUmUfAmCfGmUfUmGfAmCfAmGdT*dT; sense dTfGmAfGmGfAmGfCmUfUmGfUmGfUmGfUmUfCmGdT*dT)”, in data set [1], the EC50 was 0.153 nM.
“AD00991: Hif2α RNAi trigger, XD-02407 sequence modified to contain UNA at site 6 (antisense dTfUmUfCmA[UNA-U]mGfAmAfAmUfCmGfUmUfAmCfGmUdT*dT; sense fAmCfGmUfAmAfCmGfAmUfUmUfCmAfUmGfAmAfA[invdT])”: the EC50 in data set [1] amounted to 0.35 nM.
On to “AD02691 (antisense UUUCAUGAAAUCGUUACGUUG; sense ACGUAACGAUUUCAUGAAAT; Hif2alpha RNAi agent antisense strand; modified_base 2,4,6,8,10,14,16,18 /mod_base = “2′-deoxy-2′-fluoro corresponding nucleoside”; modified_base 1,3,5,7,9,11,12,13,15,17,19,20,21 /mod_base = “2′-O-methyl corresponding nucleoside”; modified_base 2,3,20,21 /mod_base = “5′-phosphorothioate corresponding nucleotide”; Hif2alpha RNAi agent sense strand; modified_base 1,3,5,7,8,9,11,13,15,17 /mod_base = “2′-deoxy-2′-fluoro corresponding nucleoside”; modified_base 2,4,6,10,12,14,16,18,19 /mod_base = “2′-O-methyl corresponding nucleoside”; modified_base 20 /mod_base = “3′-3′-linked nucleotide”; modi)”, for which the “Relative Expression day 4 (Hif2α mRNA in kidney tumor)” value in data set [2] (RNAi trigger 75 μg, polymer 064 187.5 μg) came out at 0.124.
For the substance “AD01034 (antisense TAAGUUAAGCUCCCAUACATT; sense UGUAUGGGAGCUUAACUUAT; Hif2alpha RNAi agent antisense strand; modified_base 2,4,6,8,10,12,14,16,18 /mod_base = “2′-deoxy-2′-fluoro corresponding nucleoside”; modified_base 3,5,7,9,11,13,15,17,19 /mod_base = “2′-O-methyl corresponding nucleoside”; modified_base 21 /mod_base = “5′-phosphorothioate corresponding nucleotide”; Hif2alpha RNAi agent sense strand; modified_base 1,3,5,7,9,11,13,15,17,19 /mod_base = “2′-deoxy-2′-fluoro corresponding nucleoside”; modified_base 2,4,6,8,10,12,14,16,18 /mod_base = “2′-O-methyl corresponding nucleoside”; modified_base 20 /mod_base = “3′-3′-linked nucleotide”; modified_base 1 /mo)”, the “Relative Expression day 4 (Hif2α mRNA in kidney tumor)” value in data set [2] (setting [4]) was found to be 0.35.
